From patent US11241394B2, “Treating vasculature related diseases or disorders using nanoparticles” (The Regents of the University of California, priority 2015, dated 2022)

Tested on: balloon-denuded rats (coronary restenosis model)
Test: Treatment of experimental rat model of coronary restenosis
Assay type: in vivo, Sprague-Dawley rats
Details: 0.3 mg kg^-1 docetaxel i.v. on day 0 and 5, arteries collected day 14, n=6
Protocol: Sprague-Dawley rats following angioplasty-induced arterial denudation were injected intravenously with 1 mL of 5 mg mL^−1 docetaxel-loaded PNPs in 10% sucrose at a docetaxel dose of 0.3 mg kg^−1 on day 0 and day 5. As controls, animals receiving PBS, free docetaxel, and empty PNPs were prepared. On day 14, animals were euthanized with an overdose of ketamine-xylazine cocktail and perfused with PBS and 4% paraformaldehyde (PFA) at a pressure of 120-140 mm Hg. Segments of left and right carotid arteries were carefully dissected out, and the PFA-fixed carotid arteries were embedded with Tissue-Tek OCT compound (VWR International) in a tissue base mold and slowly submerged into pre-chilled 2-methyl butane until frozen completely. The frozen tissue block was then immediately stored at −80° C. until sectioning. Serial sectioning (15 μm per section) was performed with a Cyrotome cryostat machine (Leica), and the tissue sections were placed on polylysine-treated glass slides. Tissue sections on slides were dried at room temperature for 30 min before staining. For immunohistochemistry, frozen sections on slides were first washed with PBS to remove residual OCT medium and then subjected to standard hematoxylin and eosin (H&E) staining. Areas of intima and media were analyzed using Image J. Luminal obliteration is defined as the intima area/the area within the internal elastic lamina. […]

Structure (SMILES): CC(=O)O[C@@]12CO[C@@H]1C[C@H](O)[C@@]1(C)C(=O)[C@H](O)C3=C(C)[C@@H](OC(=O)[C@H](O)[C@@H](NC(=O)OC(C)(C)C)c4ccccc4)C[C@@](O)([C@@H](OC(=O)c4ccccc4)[C@H]21)C3(C)C [free docetaxel, docetaxel]
- intima-to-media ratio (I/M): 0.76±0.18
- luminal obliteration: 33.6%
